Read-outs that look alike come from different tables or passages of the source.
Columns and labels:
[1] = system: Human cutaneous T-cell lymphoma Hut102 cells; experiment: MTT assay, proliferation of human cutaneous T-cell lymphoma Hut102 cells; assay type: cell-based
Description: (§1) The survival rate of cells was determined by MTT assay, which is based on the metabolic reduction of 3-(4,5-dimethyl-2thiahiazoyl)-3,5-di-phenyl-tetrazolium bromide (MTT) by viable cells. MTT is a yellow compound, a dye that accepts hydrogen ion, which can act on the respiratory chain in the mitochondria of viable cells. Under the action of succinate dehydrogenase and cytochrome C, the tetrazolium ring was cleaved to form blue Formazan crystals, and the amount of Formazan crystals generated was only proportional to the number of the viable cells. The enzymes disappeared in dead cells, so Formazan crystals could not be dissolved in MTT solution containing 20% sodium dodecyl sulfate (pH 4.7).
(§2) The cells in the logarithmic growth phase were selected and adjusted to an appropriate cell density, seeded in a 96-well plate, 100 μl/well, and cultured in a 37° C., 5% CO2 incubator. The cells were allowed to adhere overnight, then the culture medium was replaced and the drug was added to cultivate for 48 h. A blank control group, a drug administration group and a positive control group were set, with four repeats in each group.
(§3) After 48 h of drug treatment, the cells were incubated with 0.25 mg/ml MTT at 37° C. for 3-4 h, and 100 μl of dimethyl sulfoxide (DMSO) was added to each well after aspirating the culture solution.

[2] = system: Human leukemia HL60 cells; experiment: MTT assay, proliferation of human leukemia HL60 cells; assay type: cell-based; settings: Homo sapiens, HL-60, 48 h, read-out: Inhibitive rate (%) against HL60 cells
Description: as §1, §2, §3

[3] = HuT-102, 10 μM, Mean ± SE, read-out: Inhibitive rate (%) against Hut102 cells

Row | SMILES | inhibition at 10 µM [1, 3] [%] | inhibition at 10 µM ([2]; 10 μM, 48 h, Mean ± SE) [%] | inhibition at 10 µM ([1]; HuT-102, read-out: Inhibitive rate (%) against Hut102 cells) [%] | inhibition at 10 µM [2] [%]
1 | CC1(C)CCC(C)(C)c2c1cc1c(c2NC(=O)c2ccc(C(=O)NO)cc2)C(C)(C)CCC1(C)C [OAA3, N-hydroxy-4-[(1,1,4,4,5,5,8,8-octamethyl-1,2,3,4,5,6,7,8-octahydro-9-anthryl)carbamoyl] benzamide] | 11.3 ± 0.46 | 4.79 ± 6.65 |  | 
2 | COC(=O)c1ccc(C(=O)Nc2c3c(cc4c2C(C)(C)CCC4(C)C)C(C)(C)CCC3(C)C)cc1 [OAA-1, 4-[(1,1,4,4,5,5,8,8-octamethyl-1,2,3,4,5,6,7,8-octahydro-9-anthryl)carbamoyl] methyl Benzoate] | 7.11 ± 1.06 | 8.27 ± 1.57 |  | 
3 | CC1(C)CCC(C)(C)c2c1cc1c(c2NC(=O)c2ccc(C(=O)O)cc2)C(C)(C)CCC1(C)C [OAA-2, 4-[(1,1,4,4,5,5,8,8-octamethyl-1,2,3,4,5,6,7,8-octahydro-9-anthryl)carbamoyl] benzoic Acid] | -3.63 ± 1.07 | 3.06 ± 2.23 |  | 
4 | CC1(C)CCC(C)(C)c2c1cc1c(c2NC(=O)c2ccc(C(=O)Nc3ccccc3N)cc2)C(C)(C)CCC1(C)C [OAA-4, N-(2-aminophenyl)-4-[(1,1,4,4,5,5,8,8-octamethyl-1,2,3,4,5,6,7,8-octahydro-9-anthryl)carbamoyl] benzamide] | 30.3 ± 0.7 | 12.5 ± 1.32 |  | 
5 | CCN(CC)CCNC(=O)c1ccc(C(=O)Nc2c3c(cc4c2C(C)(C)CCC4(C)C)C(C)(C)CCC3(C)C)cc1 [OAA-5, N-[2-(N,N-diethylamino)]ethyl-4-[(1,1,4,4,5,5,8,8-octamethyl-1,2,3,4,5,6,7,8-octahydro-9-anthryl)carbamoyl] benzamide] | 27.7 ± 2.38 | 16.6 ± 1.43 |  | 
6 | CN(C)CCNC(=O)c1ccc(C(=O)Nc2c3c(cc4c2C(C)(C)CCC4(C)C)C(C)(C)CCC3(C)C)cc1 [OAA-7, N-[2-(N,N-dimethylamino)]ethyl-4-[(1,1,4,4,5,5,8,8-octamethyl-1,2,3,4,5,6,7,8-octahydro-9-anthryl)carbamoyl] benzamide] | 8.34 ± 4.37 | 10.8 ± 0.69 |  | 
7 | CC1(C)CCC(C)(C)c2c1cc1c(c2NC(=O)c2ccc(C(=O)Nc3ccccc3O)cc2)C(C)(C)CCC1(C)C [OAA-12, N-(2-hydroxyphenyl)-4[(1,1,4,4,5,5,8,8-octamethyl-1,2,3,4,5,6,7,8-octahydro-9-anthryl)carbamoyl] benzamide] | 25.1 ± 0.65 |  |  | 
8 | CC1(C)CCC(C)(C)c2c1cc1c(c2NC(=O)c2ccc(N)cc2)C(C)(C)CCC1(C)C [OAB-1, 4[(1,1,4,4,5,5,8,8-octamethyl-1,2,3,4,5,6,7,8-octahydro-9-anthryl)carbamoyl] aniline] | 5.43 ± 2.54 | 5.95 ± 2.98 |  | 
9 | CCOC(=O)Nc1ccc(C(=O)Nc2c3c(cc4c2C(C)(C)CCC4(C)C)C(C)(C)CCC3(C)C)cc1 [OAB-2, 4-[(1,1,4,4,5,5,8,8-octamethyl-1,2,3,4,5,6,7,8-octahydro-9-anthryl)carbamoyl] ethyl phenylcarbamate] |  |  | 6.58 ± 1.51 | 4.51 ± 1.8
10 | CC1(C)CCC(C)(C)c2c1cc1c(c2NC(=O)c2ccc(NC(=O)N3CCOCC3)cc2)C(C)(C)CCC1(C)C [OAB-3, 4-[(1,1,4,4,5,5,8,8-octamethyl-1,2,3,4,5,6,7,8-octahydro-9-anthryl)carbamoyl] phenylcarbamoyl-1-morpholine] | -0.89 ± 3.47 | 1.71 ± 5.44 |  | 
11 | CC1(C)CCC(C)(C)c2c1cc1c(c2NC(=O)c2ccc(NC(=O)Nc3ccccc3N)cc2)C(C)(C)CCC1(C)C [OAB-4, 1-(2-aminophenyl)-3-{4-[(1,1,4,4,5,5,8,8-octamethyl-1,2,3,4,5,6,7,8-octahydro-9-anthryl)carbamoyl]phenyl} urea] | 34 ± 0.93 | 15.4 ± 1.16 |  | 
12 | CC1(C)CCC(C)(C)c2c1cc1c(c2NC(=O)c2ccc(N(S(C)(=O)=O)S(C)(=O)=O)cc2)C(C)(C)CCC1(C)C [OAB-5, N,N-dimethylsulfonyl-4-[(1,1,4,4,5,5,8,8-octamethyl-1,2,3,4,5,6,7,8-octahydro-9-anthryl)carbamoyl] aniline] | 29.1 ± 1.39 | 42.3 ± 1.05 |  | 
